In patent US20080206287A1, “Use of cyclosporin A to sensitize resistant cancer cells to death receptor ligands” (priority 2006, published 2008):
“Also recorded” adds a separate entry of the source. Residues, ends and D or L forms follow the SMILES beside them. *: point of attachment. Cbz = O=C(OCc1ccccc1)*; CH2F = FC*

What was measured:
PPC-1 cells [1] = assay: Extrinsic (CH-11, TRAIL) versus intrinsic (VP-16, STS) pathway stimuli, MTT; format: cell-based; conditions: MTT 24 hours
Text: Identification of small molecules that specifically sensitize to extrinsic pathway. The nine compounds identified using anti-FAS antibody screening theoretically could non-specifically sensitize tumor cells to apoptotic stimuli or they could be selective for the extrinsic pathway. To distinguish between these two possibilities, the effects of compounds on apoptosis induced by extrinsic pathway stimuli (e.g., CH-11 antibody; TRAIL) were compared to the effects on the intrinsic pathway stimuli (e.g., etoposide [VP16]; staurosporine [STS]). Accordingly, PPC-1 cells were treated with various concentrations of compounds with or without CH-11, TRAIL, VP-16, or STS, and 24 hours later, cell viability was measured by MTT assays.

PPC-1 cells [2] = assay: Annexin V apoptosis with CH-11, sensitizers and caspase inhibitors; format: cell-based; conditions: CH-11 and sensitizers such as 6094911, 5809354, 5569100, 12 hours
Procedure: (§1) Cell death assays. Cell viability was measured by MTT and MTS assays, essentially as described in Schimmer et al. (Cancer Cell 5:25-35, 2004). Absorbance readings were plotted against a standard curve to derive the corresponding cell number, and cell viability was expressed as a percentage relative to untreated cells. Apoptosis was measured by flow cytometric analysis of Annexin V surface expression after staining cells with FITC-anti-Annexin V and propidium iodide (PI) (Biovision, Mountain View, Calif.), as described in Pedersen et al. (Blood 100:2965-72, 2002).
Caspase-dependent induction of apoptosis by combination treatment with CH-11 and FAS-sensitizing compounds. To further assess the mechanism of the 8 compounds that selectively modulated tumor sensitivity to extrinsic pathway stimuli, the effects of […]-Val-Ala-Asp-fluoromethylketone (zVAD-fmk), a broad-spectrum irreversible inhibitor of caspase-family proteases (Enzyme Systems, Dublin, Calif.) was tested. Accordingly, PPC-1 cells were treated with CH-11 and sensitizers such as 6094911, 5809354, and 5569100 with and without zVAD-fmk (100 μM) for 12 hours. Apoptosis was then measured by Annexin V staining.

FLIP [3] = assay: FLIP protein immunoblot; format: cell-based, human
Procedure: Immunoblot analysis. Protein extracts were obtained by washing cells with phosphate-buffered saline (PBS) [pH 7.4] and suspending the cells in lysis buffer [10 mM Tris (pH 7.4), 150 mM NaCl, 0.1% Triton X-100, 0.5% sodium deoxycholate, and 5 mM EDTA] containing protease inhibitors (Complete tablets; Roche, Indianapolis, Ind.). Immunoblot assays were performed as described in Carter et al. (Blood 105:4043-4050, 2005). Briefly, equal amounts of protein as determined by a Bradford assay (Bradford, Anal. Biochem. 72:248-54, 1976) were subjected to SDS-PAGE (4-20% gradient gels from ISC BioExpress, Kaysville, Utah), followed by transfer to nitrocellulose membranes. Membranes were incubated with mouse monoclonal anti-human FLIP (NF6 clone) (1:500 v/v) (Alexis, San Diego, Calif.), 1:1,000 (v/v) anti-aspase-8 clone 5F7 (Upstate) and mouse monoclonal anti-tubulin (1:2000 v/v) (Sigma Inc). Secondary antibodies consisted of horseradish peroxidase-conjugated goat anti-rabbit IgG or goat anti-mouse IgG (Bio-Rad, Hercules, Calif.). Detection was performed by the enhanced chemiluminescence method (Pierce, Rockford, Ill.).
Effects of sensitizing compounds on FLIP protein. Since FAS-sensitizing compounds 6094911 and 5809354 modulate the extrinsic pathway downstream of TNF-family death receptors but upstream of effector caspases, the effects of those compounds on expression of FLIP, an intracellular antiapoptotic protein that binds caspases-8 and -10 and is capable of suppressing death receptor signaling at a proximal point within the extrinsic pathway, was examined. For these experiments, PPC-1 cells were treated with sensitizing compounds in the presence or absence of CH-11 antibody, then cell lysates were prepared 24 hours later, and analyzed by immunoblotting for FLIP.
The levels of the short isoform of FLIP were less than 5% of total FLIP protein as measured by immunoblotting and quantitative densitometry. Therefore, given the very low levels of the short isoform, the analysis was limited to the effects of the compounds on the long isoform of FLIP.

PPC-1 cells [4] = assay: PPC-1 cell viability (MTT) with or without CH-11 anti-FAS antibody; format: cell-based; conditions: Homo sapiens, PPC-1, read-out: EC50 as a FAS-sensitizer in PPC1 cells
Procedure: High throughput screening. Screens were performed using a fully integrated, programmable robotic liquid handling system (Biomek® FX, Beckman-Coulter Inc., Fullerton, Calif.), with integrated plate reader (LJL analyst HT 96-384, Sunnyvale, Calif.) and environmentally controlled plate carousel set at 37° C. and 5% CO2:95% air. PPC-1 cells (1×10^4) were seeded overnight into 96 well, flat-bottom plates (Costar, Cambridge, Mass.) in 100 μL of medium containing 2.5% FCS. The next day, aliquots from the 50,000 compound Diversa library were added at a final concentration of 7.5 μg/mL (about 25 μM) in a final concentration of 0.5% (v:v) dimethylsulfoxide (DMSO). CH-11 antibody (100 ng/mL) was then added, and the cells were incubated for 24 hours before assessing cell viability by a 3-(4,5-Dimethylthiazol-2-yl)-2,5-diphenyltetrazolium Bromide (MTT) dye reduction assay (Sigma).
as §1
Statistics. Cytotoxicity induced by compounds used in combination with conventional agents (e.g., CH-11, TRAIL, VP-16 and staurosporine) was evaluated for evidence of synergy toxicity by comparing the slopes of the dose-response curves. If the combination of the potential sensitizing compound with the conventional agent increased the slope of the dose-response curve compared to the slopes of either the sensitizer or the conventional agent alone, then the interaction was considered synergistic. […] Statistical significance was defined as a p<0.01, using two-sided tests. Synergy was confirmed by performing multiple drug dose-effect calculations using the Median Effect methods as described in Chou (“The Median-Effect Principle and the Combination Index for Quantitation of Synergism and Antagonism.” In: D. C. Rideout and T. C. Chou (eds.), Synergism and Antagonism in Chemotherapy, pp. 61-102: Academic Press, Inc., 1991).
Identification of small molecule FAS sensitizers. Resistance to death receptor ligands may permit malignant cells to escape immune surveillance and limit the clinical efficacy of recombinant death receptor ligands such as TRAIL. To identify small molecules that restore sensitivity to death receptor ligands, a cell-based high throughput screen was performed using the FAS and TRAIL-resistant prostate cancer cell line PPC-1 and a commercially available 50,000 compound library. The screens were performed in 96 well plates, to which compounds were added at 7.5 μg/ml (about 25 μM), followed by agonistic anti-FAS monoclonal antibody CH-11 (100 ng/mL). Cell viability was measured 24 hours later by MTT assay. […] The coefficient of variation (CV) for PPC-1 cells treated with CH-11 alone was determined to be 5%, based on 90 replicate determinations. A 50% decrease in cell viability was used as a cut-off for scoring hits.
From the primary screen of 50,000 compounds, 313 reproducible hits were obtained. To determine whether any of the 313 compounds were toxic molecules as opposed to FAS-sensitizers, the 313 compounds were evaluated in secondary screens where PPC-1 cells were treated with increasing concentrations of the compounds in the presence or absence of CH-11 antibody. Through these secondary screens, nine sensitizers were identified that increased CH-11-mediated killing above the cell death produced by treatment of the cells with the compound alone (Table 1). […]

FLIP [5] = conditions: Kim et al. 2002; cited from earlier work
PPC-1 cells [6] = conditions: positive control, Kim et al. 2002; cited from earlier work

## C[n+]1ccn2c3c(c4cc(C5CCCCC5)ccc42)CCCc31.[I-] [compound 5362611, 8-Cyclohexyl-3-methyl-5,6-dihydro-4H-pyrazino[3,2,1-jk]carbazol-3-ium; iodide]
PPC-1 cells [1]
  sensitization to extrinsic (CH-11, TRAIL) and intrinsic (VP-16, STS) pathway stimuli: sensitized to both the death receptor (extrinsic) and mitochondrial pathway (intrinsic) stimuli

## COC(=O)C[C@H](NC(=O)[C@H](C)NC(=O)[C@@H](NC(=O)OCc1ccccc1)C(C)C)C(=O)CF [zVAD-fmk, reference compound] (Cbz-Val-Ala-Asp(OMe)-CH2F)
PPC-1 cells [2]
  effect of caspase inhibitor on apoptosis by CH-11 plus sensitizers: blocked sensitization to CH-11
FLIP [3]; pre-treatment before 5809354 or 5569100
  effect of caspase inhibitor pre-treatment on reductions in FLIP protein: did not prevent reductions in FLIP protein

## Cn1c(=N)n(CC(=O)c2cc(C(C)(C)C)c(O)c(C(C)(C)C)c2)c2ccccc21 [compound 5541203, 1-(3,5-Di-tert-butyl-4-hydroxy-phenyl)-2-(2-imino-3-methyl-2,3-dihydro-benzoimidazol-1-yl)-ethanone]
FLIP [3]; PPC-1 cells, with or without CH-11, 24 hours, immunoblot
  levels of FLIP protein (long isoform): had little effect
PPC-1 cells [4]
  EC50: 25.7 µM

## CC1(C)CC[C@]2(C(=O)O)CC[C@]3(C)[C@H](C(=O)C=C4[C@@]5(C)C=C(C#N)C(=O)C(C)(C)[C@@H]5CC[C@]43C)[C@@H]2C1 [CDDO, 2-cyano-3,12-dioxooleana-1,9-dien-28-oic acid]
FLIP [5]
  FLIP protein levels: reduce FLIP protein levels; also recorded: reduces FLIP expression
PPC-1 cells [6]
  sensitization of PPC-1 cells to TNF-family death receptors and ligands: sensitize PPC-1 cells to TNF-family death receptors and ligands
